Laboratory results: patent US8093301B2, “Anti-allergic agent” (Meiji Co., Ltd., priority 2005, dated 2012)
Values after ≈ are worked out from the molar mass of the structure shown. Values joined by “and” are separate entries in the source; they are usually repeats but may differ in a detail not shown here. Equal entries are not always repeated. Structures can show the parent of a compound that is named as a salt. Where two headings read alike, the source gives them in different places.

Columns and labels:
[1] = test system: basophil-like cells (RBL-2H3); assay: β-hexosaminidase release inhibition test (degranulation of IgE-sensitised, DNP-BSA-stimulated cells); format: cell-based; conditions: for IC50: read-out: 50% β-hexosaminidase release inhibitory concentration (IC50)
Method: In the Examples, the degree of cell degranulation was assessed through determination of β-hexosaminidase activity. In a specific procedure, basophil-like cells (RBL-2H3, Human Science Laboratory Resource Bank) were suspended in a Dulbecco's modified Eagle's medium (DMEM, product of Gibco) containing a 10% fetal calf serum, and the suspension was incubated overnight at 37° C. in a 96-well plate (2.5×10^5 cells/mL) in the presence of 0.1 μg/mL anti-dinitrophenyl (DNP)-IgE antibody (product of SIGMA).
The thus-treated basophil-like cells (RBL-2H3) were washed with phosphate buffer (PBS) and further incubated at 37° C. for 30 minutes in the presence of each test substance (Examples 1 to 6 and Comparative Examples 1 to 3) at a predetermined concentration. The concentrations at which incubation was performed were 0.1, 0.2, 0.3, 0.4, and 0.5 μM (ACNQ); 20, 30, 40, 60, and 80 μM (DHNA); 60, 70, 80, 90, and 100 μM (2-methyl-1,4-naphthoquinone (vitamin K3)); 10, 20, 30, 40, and 50 μM (4-amino-2-methyl-1-naphthol (vitamin K5)); 10, 20, 30, 40, and 50 μM (1,4-naphthoquinone); 3, 4, 5, 6, and 7 μM (2-amino-3-chloro-1,4-naphthoquinone); 50 and 100 μM (vitamin K1); 25, 50, and 100 μM (vitamin K2); and 50 and 100 μM (1,3-naphthalenediol).
The thus-incubated basophil-like cells (RBL-2H3) were washed with PBS, and further incubated at 37° C. for one hour in the presence of 1-μg/mL DNP-BSA (product of SSL). After completion of incubation, a supernatant was recovered from each well, and the activity of β-hexosaminidase contained in each supernatant was determined. The activity of β-hexosaminidase remaining in the cells was also determined through solubilizing the remaining cells with 0.1% polyoxyethylene(10)octylphenyl ether/DMEM.
Each of the thus-obtained supernatants and cell solubilized liquids was added to a 96-well plate (50 μL/well), and 2 mM p-nitrophenyl N-acetyl-β-D-glucosaminide (product of SIGMA) serving as a substrate was added thereto (50 μL/well). After incubation at 37° C. for two hours, a suppressor (1M Tris, pH: 9.0) was added thereto (150 μL/well), and the absorbance at 415 nm was measured by means of a plate reader. For assessing degranulation, percent β-hexosaminidase release (%) was calculated through the following formula: Percent β-hexosaminidase release (%)=100×(OD415 of supernatant)/(OD415 of supernatant+OD415 of solubilized cells).
The β-hexosaminidase activity of supernatant was determined as described above. The β-hexosaminidase activity of a supernatant of basophil-like cells (RBL-2H3) incubated in the presence of each of the test substances of Examples 1 to 6 and Comparative Examples 1 to 3) was measured, whereby 50% β-hexosaminidase release inhibitory concentration (IC50) was calculated.

[2] = test system: PCA reaction; assay: PCA reaction, Evans Blue leakage to ear auricles; format: in vivo; conditions: ICR mice, 100 μg/kg perorally one hour before PCA induction, compared with CMC sodium-administered group, P<0.05 t-test (FIG. 3)
Method: ICR mice (female, 6-week old) were preliminarily bred and grouped into the following three groups such that these groups had the same average body weight: Group 1, 0.5% carboxy-methyl-cellulose (CMC) sodium-administered group (Comparative Example 4); Group 2, ACNQ (100 μg/kg)-administered group (Example 7); and Group 3, PCA-non-induced group (Comparative Example 5). Groups 1 and 2 each included 8 mice, and Group 3 included 4 mice. Group 1 (CMC sodium-administered group) served as a control group with respect to Group 2 (ACNQ-administered group).
To each of the ICR mice of Groups 1 and 2, an anti-DNP-IgE antibody (100 ng/body) was intradermally administered through an ear auricle. Instead of the anti-DNP-IgE antibody, physiological saline was administered in a similar manner to each of the ICR mice of Group 3. […]
Subsequently, one hour after administration of each test substance, DNP-bound BSA (0.25 mg/body) serving as an antigen and Evans Blue were intravenously administered to each of the ICR mice of Groups 1 to 3, to thereby induce PCA. […] The absorbance of each extract at 620 nm was determined, to thereby calculate the Evans Blue level leaked to the ear auricle.

[3] = test system: basophil-like cells (RBL-2H3); conditions: Non-Patent Document 2; cited from earlier work
[4] = Rattus norvegicus, RBL-2H3, 0.5 h, RBL-2H3, 30 minutes incubation with test substance, DNP-BSA stimulation
[5] = Rattus norvegicus, RBL-2H3, 0.5 h, RBL-2H3, same IC50 expressed in μg/mL
[6] = Rattus norvegicus, RBL-2H3, RBL-2H3, same IC50 expressed in μg/mL
[7] = RBL-2H3, 30 minutes incubation with test substance, DNP-BSA stimulation
[8] = RBL-2H3, same IC50 expressed in μg/mL

| Compound | IC50 [1, 4] | IC50 [1, 5] | IC50 [1, 6] | other results |
| --- | --- | --- | --- | --- |
| Oc1cc(O)c2ccccc2c1 [1,3-Naphthalenediol, 1,3-naphthalenediol, reference compound] |  |  |  | IC50 ([1]; Rattus norvegicus, RBL-2H3, 0.5 h): > 100 µM and > 16 µg/mL |
| O=C1C=CC(=O)c2ccccc21 [1,4-Naphthoquione, 1,4-naphthoquinone] | ~30 µM | 4.7 µg/mL | 4.7 µg/mL |  |
| NC1=C(Cl)C(=O)c2ccccc2C1=O [2-Amino-3-chloro-1,4-naphthoquinone, 2-amino-3-chloro-1,4-naphthoquinone] | 6.8 µM | 1.4 µg/mL | 1.4 µg/mL |  |
| NC1=C(C(=O)O)C(=O)c2ccccc2C1=O [ACNQ, 2-amino-3-carboxy-1,4-naphthoquinone] | 0.25 µM | 0.0545 µg/mL | 0.0545 µg/mL | Evans Blue level leaked to the ear auricle [2]: significantly lowered; percent β-hexosaminidase release, relative to that of sample containing no test substance (0 μM) ([1]; ACNQ concentration ≧0.4 μM (FIG. 1)): about 20% |
| O=C(O)c1cc(O)c2ccccc2c1O [DHNA, 1,4-dihydroxy-2-naphthoic acid] | ~50 µM | 8.2 µg/mL | 8.2 µg/mL | percent β-hexosaminidase release, relative to that of sample containing no test substance (0 μM) ([1]; DHNA concentration ≧60 μM (FIG. 2)): about 20% |
| CC1=C(C/C=C(\C)CCC[C@H](C)CCC[C@H](C)CCCC(C)C)C(=O)c2ccccc2C1=O [Vitamin K1, phylloquione, reference compound] |  |  |  | IC50 [1, 7]: > 100 µM; 50% β-hexosaminidase release inhibitory concentration (IC50) [1, 8]: (>45.1 μg/mL) |
| CC1=CC(=O)c2ccccc2C1=O [Vitamin K3, 2-methyl-1,4-naphthoquinone] | ~50 µM | 11.5 µg/mL | 11.5 µg/mL |  |
| Cc1cc(N)c2ccccc2c1O [Vitamin K5, 4-amino-2-methyl-1-naphthol] | ~30 µM | 6.1 µg/mL | 6.1 µg/mL |  |
| CN1CCC(=C2c3ccccc3CC(=O)c3sccc32)CC1 [ketotifen fumarate, 4-(1-methyl-4-piperidylidene-4H-benzo[4,5]-cyclohepta[1,2-b]-thiophen-10(9H)-one hydrogen fumarate] |  |  |  | IC50 [3]: 214 µM; IC50 to basophil-like cells (RBL-2H3) [3]: 91 µg/mL |
| COc1ccc(C=CC(=O)Nc2ccccc2C(=O)O)cc1OC [tranilast, N-(3,4-dimethoxycinnamoyl)anthranilic acid] |  |  |  | IC50 [3]: 492 µM; IC50 to basophil-like cells (RBL-2H3) [3]: 161 µg/mL (≈ 492 µM) |
| menaquinone [Vitamin K2, reference compound] |  |  |  | IC50 [1, 7]: > 100 µM; 50% β-hexosaminidase release inhibitory concentration (IC50) [1, 8]: (>44 μg/mL) |
